Consider 59 molecules from patent US20120202801A1, “METHODS FOR TREATING BREAST CANCER” (priority 2009, published 2012).

Bounds are passed on as bounds.

The test system of the test is hypoxia-inducible endogenous VEGF expression. Briefly: Hypoxia-inducible endogenous VEGF expression ELISA in HeLa cells, dose-response (EC50, Table 3). The following applies: Homo sapiens, read-out: ELISA EC50 μM.
In general, EC50 refers to the concentration giving half of the maximal effect. Take `CC(=O)N1CCN(CC(O)COc2ccc(C3c4[nH]c5ccc(Cl)cc5c4CCN3C(=O)Oc3ccc(Cl)cc3)cc2)CC1` (centres unmarked) [Compound 415]: the concentration giving a half-maximal response (EC50) was < 0.008 µM. To `Cc1ccc(OC(=O)N2CCc3c([nH]c4ccc(Cl)cc34)[C@@H]2c2ccc(OCCC(O)CN3CCOCC3)cc2)cc1` (some centres unmarked) [Compound 1302] belongs 0.04 to 0.2 µM.

With `O=C(Oc1ccc(F)cc1)N1CCc2c([nH]c3ccc(Cl)cc23)C1c1ccc(OCCCCN2CCOCC2)cc1` (centres unmarked) [Compound 738], the EC50 was < 0.008 µM.

Consider `CCN(CC)CC(O)COc1ccc(C2c3[nH]c4ccc(Cl)cc4c3CCN2C(=O)Oc2ccc(Cl)cc2)cc1` (centres unmarked) [Compound 938], for which the half-maximal effective concentration (EC50) was < 0.008 µM. The same measure for `COCCN(CCOC)CC(O)COc1ccc(C2c3[nH]c4ccc(Cl)cc4c3CCN2C(=O)Oc2ccc(Cl)cc2)cc1` (centres unmarked) [Compound 918]: < 0.008 µM; for `O=C(Oc1ccc(Cl)cc1)N1CCc2c([nH]c3ccc(Cl)cc23)C1c1ccc(OCCCCN2CCCC2)cc1` (centres unmarked) [Compound 698]: 0.008 to 0.04 µM; for `O=C(Oc1ccc(Cl)cc1)N1CCc2c([nH]c3ccc(Cl)cc23)C1c1ccc(OCCCCCCNCCCn2ccnc2)cc1` (centres unmarked) [Compound 789]: 0.04 to 0.2 µM. Take `CC(C)NCC(O)COc1ccc(C2c3[nH]c4ccc(Cl)cc4c3CCN2C(=O)Oc2ccc(Cl)cc2)cc1` (centres unmarked) [Compound 977]: the concentration giving a half-maximal response (EC50) is 0.04 to 0.2 µM. As for `COCCN(C)CC(O)COc1ccc(C2c3[nH]c4ccc(Cl)cc4c3CCN2C(=O)Oc2ccc(F)cc2)cc1` (centres unmarked) [Compound 936], the EC50 was < 0.008 µM.

Consider `O=C(Oc1ccc(F)cc1)N1CCc2c([nH]c3ccc(Cl)cc23)C1c1ccc(OCCCCNCCCn2ccnc2)cc1` (centres unmarked) [Compound 741], for which the concentration for a half-maximal effect (EC50) is 0.04 to 0.2 µM. The same measure for `COCCCNCCCCOc1ccc(C2c3[nH]c4ccc(Cl)cc4c3CCN2C(=O)Oc2ccc(Cl)cc2)cc1` (centres unmarked) [Compound 701]: 0.008 to 0.04 µM; for `CNCC(O)COc1ccc(C2c3[nH]c4ccc(Cl)cc4c3CCN2C(=O)Oc2ccc(Cl)cc2)cc1` (centres unmarked) [Compound 850]: 0.04 to 0.2 µM; for `O=C(Oc1ccc(Cl)cc1)N1CCc2c([nH]c3ccc(Cl)cc23)C1c1ccc(OCCCN2CCCCC2)cc1` (centres unmarked) [Compound 433]: < 0.008 µM. Turning to `CN1CCN(CC(O)COc2ccc(C3c4[nH]c5ccc(Cl)cc5c4CCN3C(=O)Oc3ccc(Cl)cc3)cc2)CC1` (centres unmarked) [Compound 970], the half-maximal effective concentration (EC50) fell in the range of 0.008 to 0.04 µM. Take `O=C(Oc1ccc(F)cc1)N1CCc2c([nH]c3ccc(Cl)cc23)C1c1ccc(OCCCCNCCO)cc1` (centres unmarked) [Compound 735]: the concentration giving a half-maximal response (EC50) is < 0.008 µM. The same measure for `CC(=O)N1CCN(CCCOc2ccc(C3c4[nH]c5ccc(Cl)cc5c4CCN3C(=O)Oc3ccc(Cl)cc3)cc2)CC1` (centres unmarked) [Compound 903]: < 0.008 µM; for `O=C(Oc1ccc(Cl)cc1)N1CCc2c([nH]c3ccc(Cl)cc23)C1c1ccc(OCCCCCCNCCO)cc1` (centres unmarked) [Compound 782]: < 0.008 µM; for `COc1ccc(OC(=O)N2CCc3c([nH]c4ccc(Cl)cc34)C2c2ccc(OCCCN(C)C)cc2)cc1` (centres unmarked) [Compound 501]: 0.04 to 0.2 µM.

With `CN(C)CCCOc1ccc(C2c3[nH]c4ccc(Cl)cc4c3CCN2C(=O)Oc2ccccc2)cc1` (centres unmarked) [Compound 493], the half-maximal effective concentration (EC50) fell in the range of 0.04 to 0.2 µM. The same measure for `O=C(Oc1ccc(Cl)cc1)N1CCc2c([nH]c3ccc(Cl)cc23)C1c1ccc(OCCCN2CCCC2)cc1` (centres unmarked) [Compound 429]: < 0.008 µM; for `O=C(Oc1ccc(Cl)cc1)N1CCc2c([nH]c3ccc(Cl)cc23)C1c1ccc(OCCN2CCOCC2)cc1` (centres unmarked) [Compound 331]: > 1 µM; for `COCCN(CCCOc1ccc(C2c3[nH]c4ccc(Cl)cc4c3CCN2C(=O)Oc2ccc(Cl)cc2)cc1)CCOC` (centres unmarked) [Compound 916]: < 0.008 µM. To `COc1ccc(OC(=O)N2CCc3c([nH]c4ccc(Cl)cc34)C2c2ccc(OCC3CCCN(C)C3)cc2)cc1` (centres unmarked) [Compound 981] belongs 0.04 to 0.2 µM. Take `CN(C)CCCOc1ccc(C2c3[nH]c4ccc(Cl)cc4c3CCN2C(=O)Oc2ccc(Br)cc2)cc1` (centres unmarked) [Compound 468]: the 50% effective concentration (EC50) fell in the range of 0.008 to 0.04 µM. To `COCCN(CCOC)CC(O)COc1ccc(C2c3[nH]c4ccc(Cl)cc4c3CCN2C(=O)Oc2ccc(F)cc2)cc1` (centres unmarked) [Compound 913] belongs < 0.008 µM; to `O=C(Oc1ccc(F)cc1)N1CCc2c([nH]c3ccc(Cl)cc23)C1c1ccc(OCCCN2CCOCC2)cc1` (centres unmarked) [Compound 989], < 0.008 µM. To `COCCCNCCCCCCOc1ccc(C2c3[nH]c4ccc(Cl)cc4c3CCN2C(=O)Oc2ccc(Cl)cc2)cc1` (centres unmarked) [Compound 785] belongs < 0.008 µM; to `O=C(Oc1ccc(F)cc1)N1CCc2c([nH]c3ccc(Cl)cc23)C1c1ccc(OCCCCCCN2CCCC2)cc1` (centres unmarked) [Compound 773], < 0.008 µM; to `CN(C)CC(=O)Nc1ccc(C2c3[nH]c4ccc(Cl)cc4c3CCN2C(=O)Oc2ccc(Cl)cc2)cc1` (centres unmarked) [Compound 491], 0.04 to 0.2 µM.

As for `CN1CCN(CCCCCCOc2ccc(C3c4[nH]c5ccc(Cl)cc5c4CCN3C(=O)Oc3ccc(F)cc3)cc2)CC1` (centres unmarked) [Compound 778], the EC50 is < 0.008 µM. Turning to `O=C(Oc1ccc(Cl)cc1)N1CCc2c([nH]c3ccc(Cl)cc23)C1c1ccc(OCCCCCCN2CCCCC2)cc1` (centres unmarked) [Compound 787], the 50% effective concentration (EC50) was < 0.008 µM.

For the molecule `NCC(O)COc1ccc(C2c3[nH]c4ccc(Cl)cc4c3CCN2C(=O)Oc2ccc(Cl)cc2)cc1` (centres unmarked) [Compound 846], the EC50 is 0.04 to 0.2 µM. The same measure for `Cc1ccc(OC(=O)N2CCc3c([nH]c4ccc(Cl)cc34)C2c2ccc(OCC3CCCN(C)C3)cc2)cc1` (centres unmarked) [Compound 951]: 0.008 to 0.04 µM; for `O=C(Oc1ccc(F)cc1)N1CCc2c([nH]c3ccc(Cl)cc23)C1c1ccc(OCCCCCCNCCCn2ccnc2)cc1` (centres unmarked) [Compound 779]: 0.04 to 0.2 µM. With `O=C(Oc1ccc(Cl)cc1)N1CCc2c([nH]c3ccc(Cl)cc23)C1c1ccc(OCCCCNCCO)cc1` (centres unmarked) [Compound 699], the concentration for a half-maximal effect (EC50) was in the range of 0.008 to 0.04 µM. In the case of `O=C(Oc1ccc(F)cc1)N1CCc2c([nH]c3ccc(Cl)cc23)C1c1ccc(OCC(O)CN2CCOCC2)cc1` (centres unmarked) [Compound 638], the EC50 is < 0.008 µM. The same measure for `COCCN(C)CCCOc1ccc(C2c3[nH]c4ccc(Cl)cc4c3CCN2C(=O)Oc2ccc(F)cc2)cc1` (centres unmarked) [Compound 992]: 0.04 to 0.2 µM; for `O=C(Oc1ccc(F)cc1)N1CCc2c([nH]c3ccc(Cl)cc23)C1c1ccc(OCCCCN2CCCC2)cc1` (centres unmarked) [Compound 736]: < 0.008 µM; for `CCN(CC)CCCOc1ccc(C2c3[nH]c4ccc(Cl)cc4c3CCN2C(=O)Oc2ccc(Cl)cc2)cc1` (centres unmarked) [Compound 946]: 0.008 to 0.04 µM. To `CC(C)NCCCCCCOc1ccc(C2c3[nH]c4ccc(Cl)cc4c3CCN2C(=O)Oc2ccc(F)cc2)cc1` (centres unmarked) [Compound 774] belongs 0.008 to 0.04 µM; to `COCCCNCCCCCCOc1ccc(C2c3[nH]c4ccc(Cl)cc4c3CCN2C(=O)Oc2ccc(F)cc2)cc1` (centres unmarked) [Compound 775], < 0.008 µM. To `CC(=O)N1CCN(CC(O)COc2ccc(C3c4[nH]c5ccc(Cl)cc5c4CCN3C(=O)Oc3ccc(F)cc3)cc2)CC1` (centres unmarked) [Compound 637] belongs < 0.008 µM; to `COCCN(C)CCCOc1ccc(C2c3[nH]c4ccc(Cl)cc4c3CCN2C(=O)Oc2ccc(Cl)cc2)cc1` (centres unmarked) [Compound 908], < 0.008 µM.

Turning to `O=C(Oc1ccc(F)cc1)N1CCc2c([nH]c3ccc(Cl)cc23)C1c1ccc(OCCCCCCN2CCCCC2)cc1` (centres unmarked) [Compound 777], the concentration for a half-maximal effect (EC50) is < 0.008 µM. To `CN(C)CCN(C)CCCOc1ccc([C@H]2c3[nH]c4ccc(Cl)cc4c3CCN2C(=O)Oc2ccc(Cl)cc2)cc1` [Compound 1611] belongs < 0.008 µM.

Regarding `CN1CCCC(COc2ccc(C3c4[nH]c5ccc(Cl)cc5c4CCN3C(=O)Oc3ccc(Cl)cc3)cc2)C1` (centres unmarked) [Compound 966], the 50% effective concentration (EC50) fell in the range of 0.008 to 0.04 µM.

Take `O=C(Oc1ccc(Cl)cc1)N1CCc2c([nH]c3ccc(Cl)cc23)C1c1ccc(OCC(O)CN2CCOCC2)cc1` (centres unmarked) [Compound 904]: the concentration giving a half-maximal response (EC50) is < 0.008 µM. For the molecule `O=C(Oc1ccc(Cl)cc1)N1CCc2c([nH]c3ccc(Cl)cc23)C1c1ccc(OCCCCCCN2CCCC2)cc1` (centres unmarked) [Compound 783], the concentration for a half-maximal effect (EC50) was < 0.008 µM.

With `CC(C)NCCCCOc1ccc(C2c3[nH]c4ccc(Cl)cc4c3CCN2C(=O)Oc2ccc(Cl)cc2)cc1` (centres unmarked) [Compound 700], the EC50 fell in the range of 0.008 to 0.04 µM. To `O=C(Oc1ccc(Cl)cc1)N1CCc2c([nH]c3ccc(Cl)cc23)C1c1ccc(OCCCCCCN2CCOCC2)cc1` (centres unmarked) [Compound 786] belongs < 0.008 µM; to `O=C(Oc1ccc(Cl)cc1)N1CCc2c([nH]c3ccc(Cl)cc23)C1c1ccc(OCC(O)CN2CCCC2)cc1` (centres unmarked) [Compound 462], 0.008 to 0.04 µM; to `O=C(Oc1ccc(Cl)cc1)N1CCc2c([nH]c3ccc(Cl)cc23)C1c1ccc(OCC(O)CN2CCSCC2)cc1` (centres unmarked) [Compound 923], < 0.008 µM.

Turning to `CN1CCCC(COc2ccc(C3c4[nH]c5ccc(Cl)cc5c4CCN3C(=O)Oc3ccccc3)cc2)C1` (centres unmarked) [Compound 952], the EC50 was 0.008 to 0.04 µM. In the case of `O=C(Oc1ccc(Cl)cc1)N1CCc2c([nH]c3ccc(Cl)cc23)C1c1ccc(OCCCN2CCN(CCO)CC2)cc1` (centres unmarked) [Compound 942], the EC50 is 0.008 to 0.04 µM. The same measure for `O=C(Oc1ccc(Cl)cc1)N1CCc2c([nH]c3ccc(Cl)cc23)C1c1ccc(OCC(O)CN2CCN(CCO)CC2)cc1` (centres unmarked) [Compound 960]: 0.008 to 0.04 µM; for `COCCN(C)CC(O)COc1ccc(C2c3[nH]c4ccc(Cl)cc4c3CCN2C(=O)Oc2ccc(Cl)cc2)cc1` (centres unmarked) [Compound 964]: 0.008 to 0.04 µM. The same measure for `Cc1ccc(OC(=O)N2CCc3c([nH]c4ccc(Cl)cc34)C2c2ccc(OCCCN(C)C)cc2)cc1` (centres unmarked) [Compound 502]: 0.04 to 0.2 µM; for `O=C(Oc1ccc(Cl)cc1)N1CCc2c([nH]c3ccc(Cl)cc23)C1c1ccc(OCCCN2CCOCC2)cc1` (centres unmarked) [Compound 894]: < 0.008 µM.

On to `COCCN(CCCOc1ccc(C2c3[nH]c4ccc(Cl)cc4c3CCN2C(=O)Oc2ccc(F)cc2)cc1)CCOC` (centres unmarked) [Compound 990], for which the EC50 is < 0.008 µM.
